Experiments:
[1] = system: production of leukotriene B4 (LTB4) in isolated rat polymorphonuclear leukocytes (PMN); experiment: inhibition of LTB4 production in isolated rat polymorphonuclear leukocytes (Rat PMN); assay type: cell-based, rat (male Sprague Dawley); settings: Leukocyte, 5 min, LTB4 by RIA, A23187 10 μM, 37° C., read-out: Polymorphonuclear Leucocyte (PMN) Activity, Rat PMN IC50
Protocol: (§1) The assay is conducted as follows:
B. Rat Peritoneal Polymorphonuclear leukocytes (PMN). Male Sprague Dawley rats were purchased from Taconic Farms, Germantown, NY. The animals were maintained on standard pellet diet and water ad lib. Elicited PMN were prepared from peritoneal exudates as follows: 8 ml of 12% sodium caseinate was injected intraperitoneally into male rats. After 18-20 hours, the rats were killed with CO2 and the peritoneal cavities were lavaged with Eagle's MEM (pH 7.7) without NaHCO3 but containing Earle's salts, L-glutamine, and 30 mM HEPES. The PMN were isolated by centrifugation, washed with MEM, filtered through lens paper to remove clumps, and adjusted to a concentration of 1×10^7 cells/ml.
(§2) C. Generation and Radiommumoassay of LTB4. PMNs (0.5 mL; 2.5×10^5 cells) are placed in plastic tubes and incubated (37° C., 2 min) with test compounds at the desired concentration or vehicle control (DMSO, final concentration 0.2%). The synthesis of LTB4 is initiated by the addition of calcium inophore A23187 (final concentration 10 μM) or vehicle on control samples and allowed to proceed for 5 minutes at 37° C. The reactions are then terminated by the addition of cold methanol (0.25 mL) and samples of the entire PMN reaction mixture are removed for radiommunoassay of LTB4.
(§3) Samples (50 μl ) of authentic LTB4 of known concentration in radiommunoassay buffer (RIA) buffer (potassium phosphate 1 mM; disodium EDTA 0.1 mM; Thimerosal 0.025 mM; gelatin 0.1%, pH 7.3) or PMN reaction mixture diluted 1:1 with RIA buffer are added to reaction tubes.
(§4) Thereafter [3H]-LTB4 (10 nCu in 100 μl RIA buffer) and LTB4 antiserum (100 μL of a 1:3000 dilution in RIA buffer) are added and the tubes vortexed. Reactants are allowed to equilibrate by incubation overnight at 4° C. To separate antibody-bound from free LTB4, aliquots (50 μL) of activated charcoal (3% activated charcoal in RIA buffer containing 0.25% Dextran T-70) were added, the tubes vortexed, and allowed to stand at room temperature for 10 minutes prior to centrifugation (1500×g; 10 min; 4° C). The supernatents containing antibody-bound LTB4 are decanted into vials and Aquasol 2 (4 mL) was added. Radioactivity is quantified by liquid scintillation spectrometry. […] The specificity of the antiserium and the sensitivity of the procedure have been described in detail elsewhere. (Rokach, J.; Hayes, E. C.; Griard, Y.; Lombardo. D. L.; Maycock, A. L.; Rosenthal, A. S.; Young, R. N.; Zamboni, R.; Zweerink, H. J. Prostaglandins Leukotrienes and Medicine 1984, 13, 21). The amount of LTB4 produced in test and control approx. 20ng/10^6cells) samples are then calculated. Inhibitory dose response curves are constructed using a four parameter algorithm and from these the IC50 values are determined.

[2] = system: production of leukotriene B4 (LTB4) in isolated human polymorphonuclear leukocytes (PMN); experiment: inhibition of LTB4 production in isolated human polymorphonuclear leukocytes (Human PMN); assay type: cell-based; settings: Leukocyte, 5 min, LTB4 by RIA, A23187 10 μM, 37° C., read-out: Polymorphonuclear Leucocyte (PMN) Activity, Human PMN IC50
Protocol: as §1
A. Preparation of Human PMN. Human blood is obtained by antecubital venepuncture from consenting volunteers who denied having taken medication within the previous 7 days. The blood is immediately added to 10% (v/v) trisodium citrate (0.13 M) or 5% (v/v) sodium heparin (1000 IU/mL). PMNs are isolated from anticoagulated blood by dextran sedimentation and centrifugation through Ficoll Hypaque (specific gravity 1.077), essentially as described by Boyum. (Boyum, A., Scand. J. Clin. Lab. Invest. 1968, 21 (Supp 97), 77). Contaminating erthrocytes are removed by lysis following exposure to ammonium chloride (0.16 M) in Tris buffer (pH 7.65), and the PMNs resuspended at 5×10^5 cells/mL in HEPES (15 mM) buffered Hanks balanced salt solution containing Ca^2+ (1.4 mM) and Mg^2+ (0.7 mM), pH 7.4. Viability is assessed by Trypan blue exclusion and is typically greater than 98%.
as §2, §3
as §4, with “(Rokach, J.; Hayes, E. C.; Griard, Y.; Lombardo. D. L.; Maycock, A. L.; Rosenthal, A. S.; Young, R. N.; Zamboni, R.; Zweerink, H. J. Prostaglandins Leukotrienes and Medicine 1984, 13, 21).” left out

[3] = system: production of leukotriene B4 (LTB4) in polymorphonuclear leukocytes (PMN); experiment: LTB4 inhibition in the above described in vitro test (PMN, species not stated); assay type: cell-based; settings: Leukocyte, standard compounds
[4] = system: leukotriene biosynthesis in human polymorphonuclear leukocytes; settings: known inhibitors of leukotriene biosynthesis; cited from earlier work

Row | IC50 [1] | IC50 [2] | IC50 [3] | Compound | activity in human polymorphonuclear leukocytes assay [4]
1 | 5230 nM | – | – | Oc1ccc2c(c1)CCS2 [R4 = H, R6 = H, 5-Hydroxy-2,3-dihydrobenzothiophene] | –
2 | – | – | 0.086 µM | CC(Cc1ccc(O)c(O)c1)C(C)Cc1ccc(O)c(O)c1 (stereo not shown) [nordihydroguaiacetic acid, nordihydroguaiaretic acid] | active in this assay
3 | – | – | 9.25 µM | O=C1CCN(c2ccccc2)N1 [phenidone] | active in this assay

Continued, compound first:

Row | Compound | IC50 [1] | IC50 [2] | IC50 [3] | activity in human polymorphonuclear leukocytes assay [4]
4 | C=CCc1c(O)ccc2c1CCS2 [R4 = --CH2 CH= CH2, R6 = H, 4-(propen-3-yl)-5-hydroxy-2,3-dihydrobenzothiophene] | 887 nM | 2260 nM | – | –
5 | CCCc1cc2c(cc1O)CCS2 [R4 = H, R6 = --C3 H8, 6-propyl-2,3-dihydro-5-hydroxybenzothiophene] | 211 nM | 326 nM | – | –
6 | CC(C)(C)c1cc2c(cc1O)CCS2 [R4 = H, R6 = --C4 H10, 6-t-butyl-2,3-dihydro-5-hydroxybenzothiophene] | 207 nM | 142 nM | – | –
7 | C=CCc1cc2c(cc1O)CCS2 [R4 = H, R6 = --CH2 CH= CH2, 6-Allyl-5-hydroxy-2,3-dihydrobenzothiophene] | 190 nM | 319 nM | – | –
